Measurements: paper PMC7924852, “The Emericellipsins A–E from an Alkalophilic Fungus Emericellopsis alkalina Show Potent Activity against Multidrug-Resistant Pathogenic Fungi” (Journal of Fungi, 2021)
≈ marks a conversion by molar mass, not a printed value. Non-standard residues stand in square brackets, D forms with d. Residues, ends and D or L forms follow the SMILES beside them. Orn = NCCC[C@H](N)C(=O)O

Legend:
[1] = tested on: C. krusei 1447; test: Broth microdilution MIC and MFC (CLSI); type: cell-based
[2] = tested on: A. fumigatus 390m; test: Sensititre YeastOne antifungal susceptibility test; type: cell-based; details: Aspergillus fumigatus, 390M
[3] = tested on: Aspergillus niger ATCC 16404; test: Disc-diffusion antifungal assay; type: cell-based; details: Aspergillus niger, ATCC16404, A. niger ATCC 16404
[4] = tested on: A. terreus 497; test: Broth two-fold microdilution MIC (CLSI); type: cell-based; details: Aspergillus terreus, 497, 48 h, pH 7, read-out: Minimal Inhibitory Concentration (MIC)
[5] = tested on: reference and clinical strains of Aspergillus; test: Disc-diffusion antifungal assay, Aspergillus strains; type: cell-based; details: range over clinical isolates of Aspergillus (Figure S2)
[6] = tested on: C. krusei 1447; test: Sensititre YeastOne antifungal susceptibility test; type: cell-based; details: Pichia kudriavzevii, 1447
[7] = tested on: A. niger ATCC 16404; test: Broth two-fold microdilution MIC (CLSI); type: cell-based, Aspergillus niger; details: Aspergillus niger, ATCC16404, 48 h, pH 7, read-out: Minimal Inhibitory Concentration (MIC)
[8] = tested on: Candida albicans 1402; test: Broth microdilution MIC and MFC (CLSI); type: cell-based
[9] = tested on: Cryptococcus neoformans 297; test: Broth microdilution MIC and MFC (CLSI); type: cell-based
[10] = tested on: C. glabrata 1402; test: Sensititre YeastOne antifungal susceptibility test; type: cell-based; details: Nakaseomyces glabratus, 1402
[11] = tested on: A. niger 1133 m; test: Disc-diffusion antifungal assay; type: cell-based, Aspergillus niger; details: Aspergillus niger, pathogenic clinical isolate
[12] = tested on: A. fumigatus VKM F-37; test: Disc-diffusion antifungal assay; type: cell-based, Aspergillus fumigatus; details: Aspergillus fumigatus, VKMF37
[13] = tested on: C. parapsilosis 571; test: Sensititre YeastOne antifungal susceptibility test; type: cell-based; details: Lodderomyces parapsilosis, 571
[14] = tested on: A. niger 1133 m; test: Broth two-fold microdilution MIC (CLSI); type: cell-based, Aspergillus niger; details: Aspergillus niger, 1133M, 48 h, pH 7, read-out: Minimal Inhibitory Concentration (MIC)
[15] = tested on: clinical isolates of Candida; test: Disc-diffusion antifungal assay, clinical yeast isolates; type: cell-based; details: range over clinical isolates of Candida (Figure S2)
[16] = tested on: A. terreus 3 K; test: Disc-diffusion antifungal assay; type: cell-based; details: Aspergillus terreus
[17] = tested on: A. fumigatus 390 m; test: Broth two-fold microdilution MIC (CLSI); type: cell-based, Aspergillus fumigatus; details: Aspergillus fumigatus, 390M, 48 h, pH 7, read-out: Minimal Inhibitory Concentration (MIC)
[18] = tested on: Aspergillus niger 1133m; test: Sensititre YeastOne antifungal susceptibility test; type: cell-based; details: Aspergillus niger, 1133M
[19] = tested on: A. terreus 497; test: Disc-diffusion antifungal assay; type: cell-based; details: Aspergillus terreus, A. terreus 497, pathogenic clinical isolate
[20] = tested on: Cryptococcus neoformans 297; test: Sensititre YeastOne antifungal susceptibility test; type: cell-based; details: Cryptococcus neoformans, 297
[21] = tested on: A. fumigatus VKM F-37; test: Broth two-fold microdilution MIC (CLSI); type: cell-based, Aspergillus fumigatus; details: Aspergillus fumigatus, VKMF37, 48 h, pH 7, read-out: Minimal Inhibitory Concentration (MIC)
[22] = tested on: A. terreus 497; test: Sensititre YeastOne antifungal susceptibility test; type: cell-based; details: Sensititre YeastOne; A. terreus 497
[23] = tested on: A. terreus 3 K; test: Broth two-fold microdilution MIC (CLSI); type: cell-based; details: Aspergillus terreus, 3K, 48 h, pH 7, read-out: Minimal Inhibitory Concentration (MIC)
[24] = tested on: C. tropicalis 156; test: Broth microdilution MIC and MFC (CLSI); type: cell-based
[25] = tested on: C. tropicalis 156; test: Sensititre YeastOne antifungal susceptibility test; type: cell-based; details: Candida tropicalis, 156
[26] = tested on: C. parapsilosis 571; test: Broth microdilution MIC and MFC (CLSI); type: cell-based
[27] = tested on: Cr. laurentii 325m; test: Sensititre YeastOne antifungal susceptibility test; type: cell-based; details: Papiliotrema laurentii, 325M
[28] = tested on: Candida albicans 1402; test: Sensititre YeastOne antifungal susceptibility test; type: cell-based; details: Candida albicans, 1402
[29] = tested on: C. laurentii 325m; test: Broth microdilution MIC and MFC (CLSI); type: cell-based, Cr. laurentii; details: Papiliotrema laurentii
[30] = tested on: A. fumigatus 390 m; test: Disc-diffusion antifungal assay; type: cell-based, Aspergillus fumigatus; details: Aspergillus fumigatus, pathogenic clinical isolate
[31] = tested on: C. glabrata 1402; test: Broth microdilution MIC and MFC (CLSI); type: cell-based
[32] = tested on: human erythrocytes; test: Hemolytic activity; type: cell-based; details: 20 μM, 1 h, 37 °C, relative to H2O control = 100%, OD 540 nm or 570 nm, triplicate, mean
Description: Erythrocytes were isolated from the peripheral blood of healthy donors after incubation at 4 °C for 2–3 h. All the donors are males, 35–38 years old. All of them have approved to collect blood samples, and the authors have permissions filled. All the blood samples have been destroyed after the experiments finished. The red blood cell suspension (100 μL) was pelleted, washed twice with saline, then the pellet was resuspended in 500 μL saline or distilled water (positive control of hemolysis). The compounds were added (final concentration of 20 μM). The samples were incubated for 1 h at 37 °C and centrifuged at 2000 rpm for 1.5 min. The OD of supernatants was measured on a Multiscan spectrophotometer FC (Thermo Scientific, Waltham, MA, USA) at a wavelength of 540 nm. The percent hemolysis was calculated relative to the positive control, taken as 100%.
Erythrocytes were isolated from the human blood: On the day of the study, blood was taken from the donor’s cubital vein into a test tube with an anticoagulant. The blood was incubated at 4 °C for 2‒3 h. A suspension of erythrocytes (100 μL) was diluted with a physiological buffer (pH 7.2) to a total volume of 500 μL. Solutions of the test substances with an initial concentration of […] (DMSO) were diluted with a PBS buffer (1:10). The resulting solutions were introduced into Eppendorf tubes in the amounts required to create the studied concentration (5, 10, or 20 μM). A mixture of PBS with erythrocytes was added to a total volume of 200 μL. The control (C) was a mixture of erythrocytes with H2O (100% of hemolysis). The intact control solution (I) was a mixture of erythrocytes with the PBS and solvent (DMSO). The antibiotic gramicidin S (Gram S) was used as a control sample with active hemolysis. The mixture was incubated for 1 h at 37 °C. The measurement of the optical density of the supernatants was carried out on a BioTek ELx800 automatic microplate photometer (USA) at 570 nm. The optical density of the liquid above the sediment in the control sample with H2O was taken as 100%.

## C[C@@H]1[C@H](O)[C@@H](C)/C=C/C=C/C=C/C=C/C=C/C=C/C=C/[C@H](O[C@@H]2O[C@H](C)[C@@H](O)[C@H](N)[C@@H]2O)C[C@@H]2O[C@](O)(C[C@@H](O)C[C@@H](O)[C@H](O)CC[C@@H](O)C[C@@H](O)CC(=O)O[C@H]1C)C[C@H](O)[C@H]2C(=O)O [AmpB, Amphotericin B]
[1]; Pichia kudriavzevii, 1447, 24 h, pH 7
  MIC: 2 µg/mL (≈ 2.16 µM)
[1]; Pichia kudriavzevii, C. krusei 1447, lowest concentration causing 95% death, read-out: MFC
  MFC: 4 µg/mL (≈ 4.33 µM)
[2]
  MIC: 1 µg/mL (≈ 1.08 µM)
[3]
  zone of inhibition at 40 µg/disc: 0 mm
[4]
  MIC: > 64 µg/mL
[5]
  inhibition zones: 15–17 mm
[6]
  MIC: 2 µg/mL (≈ 2.16 µM)
[7]
  MIC: 1 µg/mL (≈ 1.08 µM)
[8]; Candida albicans 1402, lowest concentration causing 95% death, plated on PDA agar, read-out: MFC
  MFC: 0.5 µg/mL (≈ 0.541 µM)
[8]; Candida albicans 1402 clinical isolate, RPMI 1640 pH 7.0, 35 °C, 24 h, read-out: MIC
  MIC: 0.5 µg/mL (≈ 0.541 µM)
[9]; Cryptococcus neoformans 297, lowest concentration causing 95% death, read-out: MFC
  MFC: 1 µg/mL (≈ 1.08 µM)
[9]; Cryptococcus neoformans, 297, 24 h, pH 7
  MIC: 0.5 µg/mL (≈ 0.541 µM)
[10]
  MIC: 1 µg/mL (≈ 1.08 µM)
[11]
  zone of inhibition at 40 µg/disc: 10 ± 0.14 mm
[12]
  zone of inhibition at 40 µg/disc: 12 ± 0.23 mm
[13]
  MIC: 1 µg/mL (≈ 1.08 µM)
[14]
  MIC: 1 µg/mL (≈ 1.08 µM)
[15]
  inhibition zones: 10–12 mm
[16]
  zone of inhibition at 40 µg/disc: 0 mm
[17]
  MIC: 1 µg/mL (≈ 1.08 µM)
[18]
  MIC: 1 µg/mL (≈ 1.08 µM)
[19]
  zone of inhibition at 40 µg/disc: 0 mm
[20]
  MIC: 1 µg/mL (≈ 1.08 µM)
[21]
  MIC: 1 µg/mL (≈ 1.08 µM)
[22]
  MIC (class symbol): R
[23]
  MIC: > 64 µg/mL
[24]; Candida tropicalis, 156, 24 h, pH 7
  MIC: 0.5 µg/mL (≈ 0.541 µM)
[24]; Candida tropicalis, C. tropicalis 156, lowest concentration causing 95% death, read-out: MFC
  MFC: 1 µg/mL (≈ 1.08 µM)
[25]
  MIC: 0.5 µg/mL (≈ 0.541 µM)
[26]; Lodderomyces parapsilosis, 571, 24 h, pH 7
  MIC: 1 µg/mL (≈ 1.08 µM)
[26]; Lodderomyces parapsilosis, C. parapsilosis 571, lowest concentration causing 95% death, read-out: MFC
  MFC: 1 µg/mL (≈ 1.08 µM)
[27]
  MIC: 0.5 µg/mL (≈ 0.541 µM)
[28]
  MIC: 0.5 µg/mL (≈ 0.541 µM)
[29]; 325M, 24 h, pH 7
  MIC: 0.25 µg/mL (≈ 0.271 µM)
[29]; C. laurentii 325m, lowest concentration causing 95% death, read-out: MFC
  MFC: 0.5 µg/mL (≈ 0.541 µM)
[30]
  zone of inhibition at 40 µg/disc: 15 ± 0.51 mm
[31]; Nakaseomyces glabratus, 1402, 24 h, pH 7
  MIC: 1 µg/mL (≈ 1.08 µM)
[31]; Nakaseomyces glabratus, C. glabrata 1402, lowest concentration causing 95% death, read-out: MFC
  MFC: 1 µg/mL (≈ 1.08 µM)

## CC(C)C[C@@H]1NC(=O)[C@H](CCCN)NC(=O)[C@H](C(C)C)NC(=O)[C@@H]2CCCN2C(=O)[C@@H](Cc2ccccc2)NC(=O)[C@H](CC(C)C)NC(=O)[C@H](CCCN)NC(=O)[C@H](C(C)C)NC(=O)[C@@H]2CCCN2C(=O)[C@@H](Cc2ccccc2)NC1=O [gramicidin S] (cyclo(L[dF]PV[Orn]L[dF]PV[Orn]))
[32]
  hemolysis: 100%
